In patent publication US12702715B2, “Targeted RNA degradation allows precision repurposing of protein-targeted small molecule medicines to RNA” (University of Florida Research Foundation, Incorporated, priority 2020, dated 2026):
“Also recorded” adds a separate entry of the source.

Columns and labels:
Type in all cases: cell-based, human
PTEN = PTEN luciferase assay; details: MDA-MB-231
Experimental: PTEN Luciferase Assay. To study de-repression of PTEN, a luciferase-based cellular assay was performed as previously described^6. Briefly, MDA-MB-231 cells (~60% confluency) in 48-well plates were co-transfected with plasmids encoding Renilla luciferase (for normalization) and firefly luciferase fused to the 3′ UTR of PTEN by using Lipofectamine 2000 according to the manufacturer's protocol. After 5 h, the cells were treated with the compounds diluted in growth medium. Luciferase assay were then completed as previously described^4, 9.

pre-miR-21 [1] = assay: RT-qPCR of pre-miR-21 levels in MDA-MB-231 cells
Experimental: Cell Culture. Cells were cultured at 37° C. and 5% CO2. MDA-MB-231 cells (HTB-26, ATCC) were cultured in RMPI 1640 medium with L-glutamine & 25 mM HEPES supplemented with 1× Antibiotic/Antimycotic solution (Corning) and 10% FBS. MCF-10A cells (CRL-10317, ATCC) were cultured in 1×DMEM/F12 50/50 with L-glutamine & 15 mM HEPES (Corning) supplemented with 20% FBS, 1× Antibiotic/Antimycotic solution, 20 ng/mL human epidermal growth factor (Pepro Tech, Inc.), 10 μg/mL insulin (Sigma-Aldrich), and […] hydrocortisone (Pfaltz & Bauer). For compound treatment, compound stocks either in DMSO or water were diluted in growth medium and added to cells for the indicated time. Plasmid DNA to overexpress pre-miR-21 in pcDNA 3.1 (Addgene 21114) or a plasmid DNA encoding the pre-miR-21 mutant (custom purchased from GenScript USA, Inc.) was transfected with jetPRIME per the manufacturer's protocol. After transfection, the medium was replaced with growth medium containing the compound of interest, prepared as described above. The RNase L-targeting siRNA or a control siRNA was transfected with Lipofectamine RNAiMAX reagent (Invitrogen) per the manufacturer's protocol.
(§1) RNA Isolation and Quantitative Real-Time PCR (RT-qPCR). After treatment, total RNA was extracted and purified by using the Zymo Quick-RNA mini prep kit per the manufacturer's protocol. Reverse Transcription (RT) for mature miRNAs as well as pri- and pre-miR-21 was completed on 200 ng of RNA by using a miScript 11 RT kit (QIAGEN) according to manufacturer's protocol. RT of mRNAs was performed by using QScript kit (Quanta Bio). An Applied Biosystems QS5 384-well PCR system was used to complete qPCR experiments using Power Sybr Green Mater Mix (Life Technologies) as described previously^6.

FLT3 = FLT3 degradation Western blot in MDA-MB-231 cells; details: MDA-MB-231
Experimental: In each case, the secondary antibody was diluted two times more than the primary antibody.

[2] = system: RTK / phosphorylation of ERK (pERK); assay: Western blot of ERK phosphorylation (functional RTK inhibition) in MDA-MB-231 cells
Experimental: Western Blotting. MDA-MB-231 cells were plated in 6-well plates. […] The cells were harvested by trypsinization, and total protein was extracted with MPER (Mammalian Protein Extraction Reagent, Thermo Scientific) as previously described^6. Protein concentrations were determined by using a Pierce Micro BCA Protein Assay kit (Fisher Scientific). […] ImageJ software was used for quantification of the protein bands. […] In each case, the secondary antibody was diluted two times more than the primary antibody.

miR-21 = assay: RT-qPCR of mature miR-21 levels in MDA-MB-231 cells
Experimental: Cell Culture. Cells were cultured at 37° C. and 5% CO2. […] For compound treatment, compound stocks either in DMSO or water were diluted in growth medium and added to cells for the indicated time. […] After transfection, the medium was replaced with growth medium containing the compound of interest, prepared as described above. The RNase L-targeting siRNA or a control siRNA was transfected with Lipofectamine RNAiMAX reagent (Invitrogen) per the manufacturer's protocol.
as §1

pre-miR-21 [3] = assay: Cellular Chem-CLIP and C-Chem-CLIP to study occupancy of pre-miR-21; details: increasing concentrations, 4 constant
Experimental: Cellular Chem-CLIP and C-Chem-CLIP to Study Occupancy of pre-miR-2L MDA-MB-231 cells in 100 mm dishes (~90% confluency) were treated with 4 or 5 for 6 h at 37° C. Then the cells were washed with 1×DPBS and cross-linked under 365 nm light for 10 min in ice cold 1×DPBS. The cells were harvested by scraping and pelleted by centrifugation. Total RNA was extracted by using the miRNeasy mini kit (Qiagen) per the manufacturer's protocol. Approximately 50 μg of total RNA was clicked to disulfide biotin azide as described in the “In Vitro Chem-CLIP and Competitive Chem-CLIP (C-Chem-CLIP)” section. Streptavidin beads (10 μL) were added, and the samples were incubated, with shaking, for 2 h at 37° C. The beads were then washed with 1× Wash Buffer (10 mM Tris-HCl, pH 7.0, 4 M NaCl, 1 mM EDTA) three times and then once with nanopure water. Bound RNAs were eluted from the beads by incubating with 200 μL of 1:1 TCEP (200 mM) pre-reduced with 600 mM of K2CO3 for 30 min at 37° C. The reaction was quenched by treatment with an equal volume of 400 mM of iodoacetamide for 30 min at room temperature. The supernatant was collected, and the beads were washed once with nanopure water: the water was added to the eluant. The combined eluant was cleaned up using RNAClean XP beads according to the manufacturer's protocol. The obtained RNA was then subjected to RT-qPCR. Enrichment of pre-miR-21 was calculated as previously described^6. Cellular C-Chem-CLIP was completed by pre-treating with 1 (1 or 5 μM) or 3 (1 or 5 μM) for 6 h, followed by dosing with 4 (5 μM) for 6 h. Sample preparation and data analysis were completed as described above for cellular Chem-CLIP studies.

For `Cc1ncsc1-c1ccc(CNC(=O)[C@@H]2C[C@@H](O)CN2C(=O)[C@@H](NC(=O)NCCOCCOCCOCCOCCC(=O)NCCN2CCN(c3ccc4[nH]c(-c5c(N)c6c(F)cccc6[nH]c5=O)nc4c3)CC2)C(C)(C)C)cc1` [Compound 3, Protac-Dovitinib], the “PTEN expression (luciferase-based assay)” value (PTEN) was “derepressed”, the pre-miR-21 levels (pre-miR-21 [1]; MDA-MB-231, RT-qPCR) was “increased; also recorded: boosted” and the “competition of cleavage of pre-miR-21 by RIBOTAC 2” value (pre-miR-21 [1]; constant concentration of 2 (1 μM), increasing competitor) was “abated the cleavage”. For the same molecule, the “FLT3 levels / degradation” value (FLT3) was “low nanomolar activity; also recorded: induced degradation of FLT3 in a dose-dependent manner”, the “fold increase of RTK inhibition relative to 1” value [2] was 5 fold and the IC50 ([2]; Homo sapiens, MDA-MB-231) was 0.02 µM. For the same molecule, the “inhibition of ERK phosphorylation compared to 1” value ([2]; Western blot) was “more potent than 1”, the “fold increase in potency / miR-21 inhibitory activity compared with 1” value (miR-21; MDA-MB-231) was “similar” and the “mature miR-21 levels” value (miR-21; MDA-MB-231, RT-qPCR) was “reduced”. The “competition of pull-down of pre-miR-21 with 4” value (pre-miR-21 [3]) was “similarly diminished”.
